# Patent US20160177395A1, “BIOMARKERS FOR THE PREDICTION OF RENAL INJURY” (priority 2007, published 2016)
# Values joined by “and” are separate entries in the source; they are usually repeats but may differ in a detail not shown here. Equal entries are not always repeated.
# Test system: kidney tissues of treated or untreated rats
# Experiment: Real-time qRT-PCR of marker transcripts in kidney tissue panel, discovery stage (Table 22); as to normalized Real Time PCR MUSCYCG1R DB81 seg19-20: test concentration or dose not given here; as to normalized Real Time PCR RATRAB13X DB81 seg15-17: test concentration or dose not given here; as to normalized Real Time PCR RATRAB13X DB81 seg22: test concentration or dose not given here; as to normalized Real Time PCR W33294 DB81 seg23: test concentration or dose not given here; as to normalized Real Time PCR W33294 DB81 seg44: test concentration or dose not given here
# Type: in vivo, rat
# Parameters: AI502869_DB71_seg0 normalized Real Time PCR expression: unit not given beside the values
# Conditions: for normalized Real Time PCR MMU09507_DB81_seg15 / normalized Real Time PCR MUSCYCG1R_DB81_seg19-20 / normalized Real Time PCR RATRAB13X_DB81_seg15-17 / normalized Real Time PCR RATRAB13X_DB81_seg22 / normalized Real Time PCR W33294_DB81_seg23 / normalized Real Time PCR W33294_DB81_seg44: kidney; for AA686189_DB71_seg6 normalized Real Time PCR expression / AA799594_DB71_seg0 normalized Real Time PCR expression / AA964541_DB71_seg0 normalized Real Time PCR expression / AI045075_DB71_seg6 normalized Real Time PCR expression / AI454051_DB71_seg0 normalized Real Time PCR expression / AI502869_DB71_seg0 normalized Real Time PCR expression / AW919147_DB71_seg0 normalized Real Time PCR expression / BI293562_DB71_seg2 normalized Real Time PCR expression / H31045_DB71_seg5 normalized Real Time PCR expression / H31799_DB71_seg23 normalized Real Time PCR expression / H31883_DB71_seg13 normalized Real Time PCR expression / H33998_DB71_seg19 normalized Real Time PCR / MUSCYCG1R_DB81_seg15-17 normalized Real Time PCR / RATLRFI_DB71_seg9 normalized Real Time PCR / RATRAB13X_DB71_seg11-13 normalized Real Time PCR / RNU24174_DB71_seg8 normalized Real Time PCR / W41270_DB81_seg11 normalized Real Time PCR / W64472_DB81_seg2 normalized Real Time PCR / W83813_DB81_seg27 normalized Real Time PCR: rat kidney
# Procedure, shortened: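 Rat kidney RNA, DNase-treated until PCR-negative, reverse transcribed with SuperscriptII; SYBR Green real-time PCR, 40 cycles, undetected samples set to Ct 41. Relative quantity from efficiency^-Ct (standard-curve efficiency), normalized to the geometric mean of four median-scaled housekeeping genes, then multiplied by a constant factor.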
# [1] = female rats, day5, listed as Gent
# [2] = day1, individual animals (F and M)
# [3] = day5, individual animals (F and M)
# [4] = day28, individual animals (F and M)
substance,measurement,setting,value
Gentamycin,normalized Real Time PCR MMU09507_DB81_seg15,"female rats, day1",0.41 and 0.43 and 0.23
same,normalized Real Time PCR MUSCYCG1R_DB81_seg19-20,"female rats, day1",0.67 and 0.55 and 0.44
same,normalized Real Time PCR RATRAB13X_DB81_seg15-17,"female rats, day1",0.9 and 0.63 and 0.55
same,normalized Real Time PCR RATRAB13X_DB81_seg22,"female rats, day1",0.98 and 0.71 and 0.51
same,normalized Real Time PCR W33294_DB81_seg23,"female rats, day1",1 and 0.51 and 0.94
same,normalized Real Time PCR W33294_DB81_seg44,"female rats, day1",1.02 and 0.8 and 0.77
same,normalized Real Time PCR MUSCYCG1R_DB81_seg19-20,"female rats, day5",1.41
same,normalized Real Time PCR MMU09507_DB81_seg15,[1],0.78 and 0.62 and 1.13
same,normalized Real Time PCR MUSCYCG1R_DB81_seg19-20,[1],1.23 and 1.42
same,normalized Real Time PCR RATRAB13X_DB81_seg15-17,[1],1.68 and 1.5 and 1.59
same,normalized Real Time PCR RATRAB13X_DB81_seg22,[1],2.16 and 2.11 and 1.91
same,normalized Real Time PCR W33294_DB81_seg23,[1],1.64 and 1.96 and 1.51
same,normalized Real Time PCR W33294_DB81_seg44,[1],1.64 and 1.72 and 2.13
same,normalized Real Time PCR MMU09507_DB81_seg15,"female rats, day28",1.38 and 0.96 and 0.7
same,normalized Real Time PCR MUSCYCG1R_DB81_seg19-20,"female rats, day28",0.56 and 0.74 and 0.42
same,normalized Real Time PCR RATRAB13X_DB81_seg15-17,"female rats, day28",0.84 and 0.9 and 0.88
same,normalized Real Time PCR RATRAB13X_DB81_seg22,"female rats, day28",0.68 and 0.56 and 0.57
same,normalized Real Time PCR W33294_DB81_seg44,"female rats, day28",0.66 and 0.71
same,normalized Real Time PCR MMU09507_DB81_seg15,"male rats, day1",0.56 and 0.32 and 0.37
same,normalized Real Time PCR RATRAB13X_DB81_seg22,"male rats, day1",0.8 and 0.99 and 0.6
same,normalized Real Time PCR W33294_DB81_seg23,"male rats, day1",0.57 and 0.74 and 0.61
same,normalized Real Time PCR W33294_DB81_seg44,"male rats, day1",0.77 and 0.5 and 0.64
same,normalized Real Time PCR MMU09507_DB81_seg15,"male rats, day5",0.71 and 0.41 and 0.68
same,normalized Real Time PCR MUSCYCG1R_DB81_seg19-20,"male rats, day5",1.43 and 1
same,normalized Real Time PCR RATRAB13X_DB81_seg15-17,"male rats, day5",1.25 and 0.76 and 1.35
same,normalized Real Time PCR RATRAB13X_DB81_seg22,"male rats, day5",1.25 and 0.77 and 1.16
same,normalized Real Time PCR W33294_DB81_seg23,"male rats, day5",1.25 and 0.82 and 0.95
same,normalized Real Time PCR W33294_DB81_seg44,"male rats, day5",1.12 and 0.93 and 0.94
same,normalized Real Time PCR MMU09507_DB81_seg15,"male rats, day28",0.82 and 0.59 and 0.84
same,normalized Real Time PCR MUSCYCG1R_DB81_seg19-20,"male rats, day28",0.79 and 0.4 and 0.55
same,normalized Real Time PCR RATRAB13X_DB81_seg15-17,"male rats, day28",0.77 and 0.76 and 1.22
same,normalized Real Time PCR RATRAB13X_DB81_seg22,"male rats, day28",0.91 and 0.88 and 0.58
same,normalized Real Time PCR W33294_DB81_seg23,"male rats, day28",0.57 and 0.8 and 0.67
same,AA686189_DB71_seg6 normalized Real Time PCR expression,"day1, individual animals",1.19 and 0.65 and 1.07 and 0.94 and 1.04 and 0.6
same,AA799594_DB71_seg0 normalized Real Time PCR expression,"day1, individual animals",1.25 and 0.72 and 0.93 and 0.57 and 0.95 and 0.92
same,AA964541_DB71_seg0 normalized Real Time PCR expression,"day1, individual animals",1.35 and 0.74 and 1.29 and 0.9 and 1.19 and 0.44
same,AI045075_DB71_seg6 normalized Real Time PCR expression,"day1, individual animals",1.5 and 0.93 and 0 and 1.07 and 1.03 and 0.78
same,AI454051_DB71_seg0 normalized Real Time PCR expression,"day1, individual animals",0.9 and 0.75 and 0.57 and 0.4 and 0.54 and 0.79
same,AI502869_DB71_seg0 normalized Real Time PCR expression,"day1, individual animals",0.83 and 0.61 and 0.53 and 1.53 and 0.99 and 0.76
same,AW919147_DB71_seg0 normalized Real Time PCR expression,"day1, individual animals",1.72 and 0.72 (2×) and 0.76 and 1.1 and 0.99
same,BI293562_DB71_seg2 normalized Real Time PCR expression,"day1, individual animals",0.59 and 0.94 and 0.93 and 0.55 and 0.41
same,H31045_DB71_seg5 normalized Real Time PCR expression,"day1, individual animals",0.27 and 0.22 and 0.73 and 0.16 and 0.19 and 0.15
same,H31799_DB71_seg23 normalized Real Time PCR expression,"day1, individual animals",1.19 and 0.88 and 0.93 and 1 and 1.2
same,H31883_DB71_seg13 normalized Real Time PCR expression,"day1, individual animals",0.99 and 0.92 and 0.82 (2×) and 0.61 and 0.73
same,H33998_DB71_seg19 normalized Real Time PCR,[2],1.31 and 0.83 and 0.56 and 1.51 and 1.35 and 0.99
same,MUSCYCG1R_DB81_seg15-17 normalized Real Time PCR,[2],0.63 and 0.53 and 0.66 and 0.5 and 0.49 and 0.41
same,RATLRFI_DB71_seg9 normalized Real Time PCR,[2],0.98 and 1.54 and 1.09 and 2.74 and 1.72 and 0.27
same,RATRAB13X_DB71_seg11-13 normalized Real Time PCR,[2],1.16 and 0.7 and 0.77 and 2.79 and 1.14 and 1.03
same,RNU24174_DB71_seg8 normalized Real Time PCR,[2],0.47 (2×) and 0.5 and 0.74 and 0.37 and 0.26
same,W41270_DB81_seg11 normalized Real Time PCR,[2],1.24 and 0.67 and 1.19 and 0.46 and 0.68 and 0.57
same,W64472_DB81_seg2 normalized Real Time PCR,[2],0.63 and 0.45 and 0.61 and 0.4 and 0.54 (2×)
same,W83813_DB81_seg27 normalized Real Time PCR,[2],0.84 and 0.79 and 0.78 and 0.53 and 0.58 and 0.71
same,AA686189_DB71_seg6 normalized Real Time PCR expression,"day5, individual animals",0.64 and 0.72 and 1.21 and 0.81 and 0.83 and 0.75
same,AA799594_DB71_seg0 normalized Real Time PCR expression,"day5, individual animals",0.99 and 0.89 (2×) and 1.52 and 0.56 and 1.04
same,AA964541_DB71_seg0 normalized Real Time PCR expression,"day5, individual animals",0.86 and 0.58 and 0.91 and 0.76 and 0.87
same,AI045075_DB71_seg6 normalized Real Time PCR expression,"day5, individual animals",0.76 and 1.04 (2×) and 0.62 and 1.1 and 0
same,AI454051_DB71_seg0 normalized Real Time PCR expression,"day5, individual animals",0.63 (2×) and 1.04 and 1.19 and 0.8 and 0.82
same,AI502869_DB71_seg0 normalized Real Time PCR expression,"day5, individual animals",0.73 and 0.62 and 0.96 and 0.51 and 0.43 and 0.53
same,AW919147_DB71_seg0 normalized Real Time PCR expression,"day5, individual animals",0.86 and 0.88 and 0.95 and 0.71 and 0.79 and 0.78
same,BI293562_DB71_seg2 normalized Real Time PCR expression,"day5, individual animals",0.95 and 0.76 and 2.8 and 2.32 and 1.61 and 0.93
same,H31045_DB71_seg5 normalized Real Time PCR expression,"day5, individual animals",0.52 and 1.01 and 0.4 and 1.57 and 1.47 and 0.33
same,H31799_DB71_seg23 normalized Real Time PCR expression,"day5, individual animals",0.92 and 0.91 and 1.36 and 1.08 and 0.76 and 0.88
same,H31883_DB71_seg13 normalized Real Time PCR expression,"day5, individual animals",0.73 and 0.55 and 0.91 and 1.01 and 0.7 and 0.65
same,H33998_DB71_seg19 normalized Real Time PCR,[3],1.9 and 1.5 and 2.19 and 1.91 and 0.83 and 1.16
same,MUSCYCG1R_DB81_seg15-17 normalized Real Time PCR,[3],1.51 (2×) and 1.61 and 0.95 and 0.79 and 1.02
same,RATLRFI_DB71_seg9 normalized Real Time PCR,[3],0.48 and 0.43 and 4.15 and 1.35 and 1.13 and 0.59
same,RATRAB13X_DB71_seg11-13 normalized Real Time PCR,[3],0.9 (2×) and 0.82 and 1.12 and 0.61 and 0.8
same,RNU24174_DB71_seg8 normalized Real Time PCR,[3],0.31 and 0.22 and 0.81 and 0.65 and 0.36 and 0.4
same,W41270_DB81_seg11 normalized Real Time PCR,[3],2.04 and 1.34 and 2.42 and 2.03 and 1.08 and 1.2
same,W64472_DB81_seg2 normalized Real Time PCR,[3],1.5 and 1.2 and 0.94 and 1.95 and 1.62 and 1.61
same,W83813_DB81_seg27 normalized Real Time PCR,[3],2.07 and 1.82 and 1.7 and 1.35 and 0.88 and 1.4
same,AA686189_DB71_seg6 normalized Real Time PCR expression,"day28, individual animals",2.7 and 2.09 and 2.48 and 1.98 and 1.23 and 2.51
same,AA799594_DB71_seg0 normalized Real Time PCR expression,"day28, individual animals",0.84 and 0.8 and 0.89 and 0.54 and 0.5 and 0.67
same,AA964541_DB71_seg0 normalized Real Time PCR expression,"day28, individual animals",3.19 and 1.77 and 2.16 and 3.33 and 1.45 and 3.18
same,AI045075_DB71_seg6 normalized Real Time PCR expression,"day28, individual animals",2.09 and 3.14 and 1.74 and 1.25 and 1.99 and 1.29
same,AI454051_DB71_seg0 normalized Real Time PCR expression,"day28, individual animals",0.67 and 1 and 0.95 and 1.14 and 0.64 and 0.71
same,AI502869_DB71_seg0 normalized Real Time PCR expression,"day28, individual animals",0.66 and 0.74 and 0.73 and 1.36 and 0.92 and 0.77
same,AW919147_DB71_seg0 normalized Real Time PCR expression,"day28, individual animals",0.73 and 1.12 and 0.89 and 0.75 and 0.57 and 0.93
same,BI293562_DB71_seg2 normalized Real Time PCR expression,"day28, individual animals",2.01 and 1.19 and 0.81 and 0.63 and 0.72 and 1.16
same,H31045_DB71_seg5 normalized Real Time PCR expression,"day28, individual animals",0.79 and 0.84 and 0.67 and 1.11 and 4.65 and 0.45
same,H31799_DB71_seg23 normalized Real Time PCR expression,"day28, individual animals",0.88 and 1.05 and 1.17 (2×) and 0.37
same,H31883_DB71_seg13 normalized Real Time PCR expression,"day28, individual animals",0.88 and 0.98 and 0.96 and 1.05 and 0.64 and 0.8
same,H33998_DB71_seg19 normalized Real Time PCR,[4],0.4 (2×) and 0.7 and 0.56 and 0.49 and 0.42
same,MUSCYCG1R_DB81_seg15-17 normalized Real Time PCR,[4],0.69 and 0.62 and 0.57 and 0.65 and 0.56 and 0.54
same,RATLRFI_DB71_seg9 normalized Real Time PCR,[4],5.63 and 4.17 and 2.43 and 2.56 and 1.59 and 2.51
same,RATRAB13X_DB71_seg11-13 normalized Real Time PCR,[4],0.83 and 1.12 and 0.88 and 1.17 and 0.76 and 1.22
same,RNU24174_DB71_seg8 normalized Real Time PCR,[4],1.53 and 1.2 and 0.59 and 1.91 and 0.69 and 0.65
same,W41270_DB81_seg11 normalized Real Time PCR,[4],0.94 and 0.81 (2×) and 1.42 and 0.75 and 0.84
same,W64472_DB81_seg2 normalized Real Time PCR,[4],0.92 and 0.66 and 0.54 and 1.49 and 0.84 and 0.81
same,W83813_DB81_seg27 normalized Real Time PCR,[4],0.45 and 0.34 and 0.62 and 0.78 and 0.54 and 0.38
